Experimental data taken from paper PMC12627862, “Therapeutic targeting of endothelial calcium signaling accelerates the resolution of lung injury” (Signal Transduction and Targeted Therapy, 2025).
Starred links: 1 amine or outer side, 2 acyl side, 3 side chain; linkers in the order of their positions; H or OH if unused. Non-standard residues stand in square brackets, D forms with d. Residues, ends and D or L forms follow the SMILES beside them. ξ: configuration not given here. Oic = O=C(O)[C@@H]1C[C@@H]2CCCC[C@@H]2N1; GABOB(3R) = O=C(C[C@@H](O)CN[*:1])[*:2]; tBuAla = CC(C)(C)C[C@H](N)C(=O)O; ξVal(3-OH) = CC(C)(O)C(N)C(=O)O; 4Amb = NCc1ccc(C(=O)O)cc1

What was measured:
[1] = test system: CD1 mice challenged with LPS; experiment: Endotoxemia model, sublethal LPS in oil-preloaded mice; type: in vivo, mouse; conditions: LPS 4 mg/kg i.p.
Description: Considering the diverse etiological factors contributing to the pathogenesis of ARDS[29], we first assessed the therapeutic benefits of VT-109 in treating pulmonary vascular leakage in a murine model of endotoxemia-induced hyperinflammatory ARDS[30]. We induce a systemic inflammatory response by administering lipopolysaccharide (LPS), an endotoxin of the outer membrane of gram-negative bacteria, which elicits strong immune responses in animals, causing endothelial barrier breakdown and associated pulmonary edema, lung injury, morbidity, and mortality.
Using this model, we implemented two different i.v. treatment protocols with VT-109 (Fig. 3a, b). In cohort 1, mice received three daily doses of 1 µmol/kg bw VT-109 starting 24 hours after LPS challenge at the onset of lung injury. […] Cohort 3 mice received vehicle daily starting at 24 hours of LPS challenge. […] This inhibitory effect of VT-109 on neutrophil recruitment, a hallmark of lung inflammation and poor clinical prognosis, was consistent with our previous work[3]. Overall, our findings indicate that treating pulmonary vascular leakage reduces lung inflammation, in part, by restricting neutrophil transmigration through the endothelial barrier. […]
Evans’ blue-labeled albumin extravasation. […] The optical density of the supernatant was measured spectrophotometrically at 620 nm (Evans Blue) and 740 nm (hemoglobin correction), with the dye content normalized to the wet weight of the lungs. Corrections for hemoglobin were made as follows: Corrected absorbance (Evans blue) = Absorbance (620) - (1.426 × Absorbance (740) + 0.03). […]
Myeloperoxidase (MPO) measurements. […] MPO levels in the samples were determined using the o-dianisidine-H₂O₂ technique following enzyme extraction with hexadecyl-trimethylammonium bromide (HTAB). The absorbance change was measured at […] over a 3-minute period, and the data were expressed as ΔOD460/min/g lung tissue.

[2] = Non-GLP dose-escalation (MTD) study in rats; type: in vivo, rat; set-up: key to Clinical Signs / Body Weights / Clinical Chemistry / Hematology / Coagulation: NE = no effect; DA = decreased activity; LB = labored breathing; P = piloerection; HP = hunched posture; conditions: rat, in vivo; male Crl:CD (SD) rats, single IV bolus; read-out: no observed adverse effect level (NOAEL)
[3] = test system: Crl:CD (SD) rats; experiment: Non-GLP dose-escalation (MTD) study in rats; type: in vivo, rat; set-up: key to Clinical Signs / Body Weights / Clinical Chemistry / Hematology / Coagulation: NE = no effect; DA = decreased activity; LB = labored breathing; P = piloerection; HP = hunched posture; conditions: for ALT / APTT / AST / Albumin / Alkaline Phosphatase / Blood Urea Nitrogen / Calcium / Chloride / Cholesterol / Creatinine / Fibrinogen / Globulin / Glucose / Phosphorus / Potassium / Prothrombin Time / Sodium / Total Bilirubin / Total Protein: male rats, day 2, mean, N=3; for Body Weights / Clinical Chemistry / Clinical Signs / Coagulation / Hematology: rats, n=3
[4] = in vitro; conditions: rat, plasma
Description: Stability assay of peptides in blood plasma of rodents, dogs, and humans. For the plasma stability assay, 5 μM of each peptide was incubated with species-specific plasma for 120 minutes and samples were taken at the required time points. Positive control used were molecules with known stability: enalapril, propantheline, and warfarin. The amount of test compound remaining at each time point was analyzed by LC-MS/MS. Appropriate control compounds for each species were also incubated.

CC(C)(C)C[C@@H]1NC(=O)C[C@@H](O)CNC(=O)[C@@H]2C[C@@H]3CCCC[C@@H]3N2C(=O)[C@H](CC(C)(C)C)NC(=O)c2ccc(cc2)CNC(=O)C(C(C)(C)O)NC(=O)[C@@H](Cc2ccccc2)NC1=O (stereo partly drawn) [compound 109, (1^2S,1^3aS,1^7aS,3S,10S,13R,16S,20R)-13-benzyl-20-hydroxy-10-(2-hydroxypropan-2-yl)-3,16-dineopentyl-1^2,1^3,1^3a,1^4,1^5,1^6,1^7,1^7a-octahydro-1^1H-4,8,11,14,17,22-hexaaza-1(1,2)-indola-6(1,4)-benzenacyclotricosaphane-2,5,9,12,15,18,23-heptaone.] (cyclo([4Amb][tBuAla][Oic][GABOB(3R)][tBuAla][dF][ξVal(3-OH)]))
pulmonary edema (EBA extravasation) ([1]; cohort 1: three daily i.v. doses of 1 µmol/kg bw starting 24 hours after LPS): promptly blocked the development of pulmonary edema | pulmonary edema (EBA extravasation) ([1]; cohort 2: two daily i.v. doses of 1 µmol/kg bw starting 72 hours after LPS): accelerated the resolution of pulmonary edema | myeloperoxidase (MPO) in the lung tissue ([1]; regardless of the treatment initiation time): consistently lowered | NOAEL at 72 h [2]: 5 mg/kg | MTD, equivalent in humans ([3]; human equivalent): ~ 2.43 mg/kg | LOAEL, HED ([3]; human equivalent dose): ~ 1.62 mg/kg | NOAEL, HED ([3]; human equivalent dose): ~ 0.81 mg/kg | lowest observed adverse effect level (LOAEL) ([3]; male Crl:CD (SD) rats, single IV bolus): 10 mg/kg | ALT ([3]; 5 mg/kg): 52.7 U/L | APTT ([3]; 5 mg/kg): 17.933 d¹ Seconds | AST ([3]; 5 mg/kg): 71.3 U/L | Albumin ([3]; 5 mg/kg): 3.0400 g/dL | Alkaline Phosphatase ([3]; 5 mg/kg): 381.7 U/L | Blood Urea Nitrogen ([3]; 5 mg/kg): 13.0 mg/dL | Calcium ([3]; 5 mg/kg): 11.320 mg/dL | Chloride ([3]; 5 mg/kg): 98.3 mmol/L | Cholesterol ([3]; 5 mg/kg): 86.0 5.6 3 mg/dL | Creatinine ([3]; 5 mg/kg): 0.3139 mg/dL | Fibrinogen ([3]; 5 mg/kg): 403.0 mg/dL | Globulin ([3]; 5 mg/kg): 2.239 g/dL | Glucose ([3]; 5 mg/kg): 161.3 mg/dL | Phosphorus ([3]; 5 mg/kg): 9.10 0.44 3 mg/dL | Potassium ([3]; 5 mg/kg): 5.93 d² mmol/L | Prothrombin Time ([3]; 5 mg/kg): 11.77 s | Sodium ([3]; 5 mg/kg): 141.3 mmol/L | Total Bilirubin ([3]; 5 mg/kg): 0.127 mg/dL | Total Protein ([3]; 5 mg/kg): 5.279 g/dL | ALT ([3]; 10 mg/kg): 52.0 U/L | APTT ([3]; 10 mg/kg): 17.800 d¹ Seconds | AST ([3]; 10 mg/kg): 68.3 U/L | Albumin ([3]; 10 mg/kg): 3.2720 0.1274 3 g/dL | Alkaline Phosphatase ([3]; 10 mg/kg): 323.0 U/L | Blood Urea Nitrogen ([3]; 10 mg/kg): 18.7 mg/dL | Calcium ([3]; 10 mg/kg): 11.767 mg/dL | Chloride ([3]; 10 mg/kg): 99.0 mmol/L | Cholesterol ([3]; 10 mg/kg): 88.7 2.3 3 mg/dL | Creatinine ([3]; 10 mg/kg): 0.318 mg/dL | Fibrinogen ([3]; 10 mg/kg): 453.3 mg/dL | Globulin ([3]; 10 mg/kg): 2.523 0.078 3 g/dL | Glucose ([3]; 10 mg/kg): 126.7 10.5 3 mg/dL | Phosphorus ([3]; 10 mg/kg): 9.67 0.45 3 mg/dL | Potassium ([3]; 10 mg/kg): 5.77 mmol/L | Prothrombin Time ([3]; 10 mg/kg): 12.27 d¹ Seconds | Sodium ([3]; 10 mg/kg): 144.0 mmol/L | Total Bilirubin ([3]; 10 mg/kg): 0.127 mg/dL | Total Protein ([3]; 10 mg/kg): 5.795 0.203 3 g/dL | ALT ([3]; 15 mg/kg): 52.7 U/L | APTT ([3]; 15 mg/kg): 16.867 s | AST ([3]; 15 mg/kg): 69.7 U/L | Albumin ([3]; 15 mg/kg): 3.1030 d² 0.0465 3 g/dL | Alkaline Phosphatase ([3]; 15 mg/kg): 286.0 U/L | Blood Urea Nitrogen ([3]; 15 mg/kg): 15.7 d² mg/dL | Calcium ([3]; 15 mg/kg): 11.590 mg/dL | Chloride ([3]; 15 mg/kg): 97.0 d² mmol/L | Cholesterol ([3]; 15 mg/kg): 91.0 6.1 3 mg/dL | Creatinine ([3]; 15 mg/kg): 0.352 mg/dL | Fibrinogen ([3]; 15 mg/kg): 438.3 mg/dL | Globulin ([3]; 15 mg/kg): 2.488 0.021 3 g/dL | Glucose ([3]; 15 mg/kg): 142.3 d² 1.2 3 mg/dL | Phosphorus ([3]; 15 mg/kg): 9.00 0.26 3 mg/dL | Potassium ([3]; 15 mg/kg): 5.47 mmol/L | Prothrombin Time ([3]; 15 mg/kg): 11.67 s | Sodium ([3]; 15 mg/kg): 142.0 mmol/L | Total Bilirubin ([3]; 15 mg/kg): 0.140 mg/dL | Total Protein ([3]; 15 mg/kg): 5.591 d² 0.067 3 g/dL | Body Weights ([3]; single IV bolus 5 mg/kg): NE | Clinical Chemistry ([3]; single IV bolus 5 mg/kg): NE | Clinical Signs ([3]; single IV bolus 5 mg/kg): DA | Coagulation ([3]; single IV bolus 5 mg/kg): NE | Hematology ([3]; single IV bolus 5 mg/kg): NE | Body Weights ([3]; single IV bolus 10 mg/kg): NE | Clinical Chemistry ([3]; single IV bolus 10 mg/kg): ↑BUN | Clinical Signs ([3]; single IV bolus 10 mg/kg): DA, LB | Coagulation ([3]; single IV bolus 10 mg/kg): NE | Hematology ([3]; single IV bolus 10 mg/kg): ↓%Reticulocytes | Body Weights ([3]; single IV bolus 15 mg/kg): NE | Clinical Chemistry ([3]; single IV bolus 15 mg/kg): ↑BUN ↑Creatinine | Clinical Signs ([3]; single IV bolus 15 mg/kg): DA, LB, P, HP | Coagulation ([3]; single IV bolus 15 mg/kg): NE | Hematology ([3]; single IV bolus 15 mg/kg): ↓Platelet Count ↓%Reticulocytes ↑Mean Platelet Volume | lung gross histopathology ([3]; single IV bolus 15 mg/kg): intra-alveolar hemorrhage and pigment deposition | half-life at 5 μM [4]: 4.88 h | remaining at 2 h, 5 μM [4]: 76.5%
